This note sets out measurements from BindingDB's records for doi:10.1021/jm960728j (Uppsala University, 1997).

pKi: −log10 of the molar value. Where only a bound is given, the exact number is not on record here.

In the assay the target is T1, Dimer of Gag-Pol polyprotein [489-587] (Human immunodeficiency virus 1, UniProt P12497).
T1 construct: 489-587
In words: Protease Inhibition Assay. The following applies: pH 5.5; 37 °C. The text has this:
The IC50 value is the inhibitor concentration that results in 50% of HIV-1 protease activity measured by a spectrophotometric assay using a chromophoric peptide.

For orientation: pKi means −log10 of the Ki, conventionally taken in molar units. A low value points to a high Ki.

`O=C1N(Cc2ccc(CO)cc2)[C@H](Cc2ccccc2)[C@H](O)[C@@H](O)[C@@H](Cc2ccccc2)N1Cc1ccc(CO)cc1` [(4R,5S,6S,7R)-4,7-dibenzyl-5,6-dihydroxy-1,3-bis({[4-(hydroxymethyl)phenyl]methyl})-1,3-diazepan-2-one] had a pKi of over 9.00.
With `O=C1N(Cc2ccc(CO)cc2)[C@H](COc2ccccc2)[C@H](O)[C@@H](O)[C@@H](COc2ccccc2)N1Cc1ccc(CO)cc1` [(4R,5S,6S,7R)-5,6-dihydroxy-1,3-bis({[4-(hydroxymethyl)phenyl]methyl})-4,7-bis(phenoxymethyl)-1,3-diazepan-2-one] the figure was over 9.00.
